Assays:
Assay in all cases: KINOMEscan competition binding
EPHB6 = biological target: T1, EPHB6 (Homo sapiens, UniProt O15197); conditions: read-out: %Inh EPHB6
T1 sequence (O15197 32-1021): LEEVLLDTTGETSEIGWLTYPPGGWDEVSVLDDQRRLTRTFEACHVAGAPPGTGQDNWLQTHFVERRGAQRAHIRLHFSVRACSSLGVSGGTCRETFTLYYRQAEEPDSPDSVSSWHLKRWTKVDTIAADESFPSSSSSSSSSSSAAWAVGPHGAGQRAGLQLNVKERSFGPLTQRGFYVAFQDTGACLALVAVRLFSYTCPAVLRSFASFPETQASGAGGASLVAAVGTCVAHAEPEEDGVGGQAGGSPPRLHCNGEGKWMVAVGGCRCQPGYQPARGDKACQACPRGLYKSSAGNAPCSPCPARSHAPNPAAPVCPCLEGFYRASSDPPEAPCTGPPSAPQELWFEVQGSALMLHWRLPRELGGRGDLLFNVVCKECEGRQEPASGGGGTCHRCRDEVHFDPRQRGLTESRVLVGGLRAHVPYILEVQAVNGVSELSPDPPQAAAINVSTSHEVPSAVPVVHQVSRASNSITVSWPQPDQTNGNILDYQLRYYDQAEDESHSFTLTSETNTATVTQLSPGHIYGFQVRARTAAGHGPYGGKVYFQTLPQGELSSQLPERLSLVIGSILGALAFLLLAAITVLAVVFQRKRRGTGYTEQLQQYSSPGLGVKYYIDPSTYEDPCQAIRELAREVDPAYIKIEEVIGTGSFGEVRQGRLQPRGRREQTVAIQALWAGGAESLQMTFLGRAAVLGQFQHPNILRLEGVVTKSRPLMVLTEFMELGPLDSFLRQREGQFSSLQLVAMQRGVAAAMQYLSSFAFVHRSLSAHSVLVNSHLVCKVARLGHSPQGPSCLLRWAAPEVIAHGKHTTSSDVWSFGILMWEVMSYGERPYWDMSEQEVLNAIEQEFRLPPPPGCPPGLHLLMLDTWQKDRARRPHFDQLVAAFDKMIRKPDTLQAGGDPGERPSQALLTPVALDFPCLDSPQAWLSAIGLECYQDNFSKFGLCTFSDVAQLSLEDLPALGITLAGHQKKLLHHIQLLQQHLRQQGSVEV

ABL1-phosphorylated = ABL1-phosphorylated (Homo sapiens, UniProt P00519); conditions: read-out: %Inh ABL1-phosphorylated
ABL1-phosphorylated, sequence (P00519 whole entry): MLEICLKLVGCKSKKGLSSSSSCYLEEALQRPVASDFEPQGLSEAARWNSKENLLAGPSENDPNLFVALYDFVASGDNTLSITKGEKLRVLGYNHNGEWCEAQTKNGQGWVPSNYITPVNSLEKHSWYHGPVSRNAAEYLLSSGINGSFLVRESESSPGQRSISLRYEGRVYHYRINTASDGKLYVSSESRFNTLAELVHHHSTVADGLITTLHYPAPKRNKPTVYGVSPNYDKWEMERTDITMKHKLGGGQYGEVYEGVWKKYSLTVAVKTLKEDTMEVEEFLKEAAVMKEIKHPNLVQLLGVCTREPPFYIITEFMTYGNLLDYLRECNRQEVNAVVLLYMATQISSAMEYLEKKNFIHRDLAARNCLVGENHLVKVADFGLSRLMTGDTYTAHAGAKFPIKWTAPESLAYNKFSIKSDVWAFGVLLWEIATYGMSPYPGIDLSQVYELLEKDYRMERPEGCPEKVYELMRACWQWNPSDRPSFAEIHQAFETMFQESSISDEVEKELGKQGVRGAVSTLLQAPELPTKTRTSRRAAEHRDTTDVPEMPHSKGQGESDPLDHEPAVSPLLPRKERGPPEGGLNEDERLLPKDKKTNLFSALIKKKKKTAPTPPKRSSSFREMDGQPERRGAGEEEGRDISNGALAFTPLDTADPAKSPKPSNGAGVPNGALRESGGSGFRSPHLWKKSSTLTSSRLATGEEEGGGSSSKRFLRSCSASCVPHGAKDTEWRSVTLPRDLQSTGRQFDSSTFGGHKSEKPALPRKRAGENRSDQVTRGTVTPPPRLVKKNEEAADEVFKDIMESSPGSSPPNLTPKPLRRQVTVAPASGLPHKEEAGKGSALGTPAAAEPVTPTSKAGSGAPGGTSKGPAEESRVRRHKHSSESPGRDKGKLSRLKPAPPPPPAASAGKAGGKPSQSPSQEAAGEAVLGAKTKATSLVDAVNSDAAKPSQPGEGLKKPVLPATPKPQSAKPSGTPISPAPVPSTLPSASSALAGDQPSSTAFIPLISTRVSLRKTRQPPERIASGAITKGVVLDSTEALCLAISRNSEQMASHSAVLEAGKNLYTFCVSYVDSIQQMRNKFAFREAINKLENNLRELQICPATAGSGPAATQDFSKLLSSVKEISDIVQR

AMPK-alpha2 = AMPK-alpha2 (Homo sapiens, UniProt P54646); conditions: read-out: %Inh AMPK-alpha2
AMPK-alpha2, sequence (P54646 whole entry): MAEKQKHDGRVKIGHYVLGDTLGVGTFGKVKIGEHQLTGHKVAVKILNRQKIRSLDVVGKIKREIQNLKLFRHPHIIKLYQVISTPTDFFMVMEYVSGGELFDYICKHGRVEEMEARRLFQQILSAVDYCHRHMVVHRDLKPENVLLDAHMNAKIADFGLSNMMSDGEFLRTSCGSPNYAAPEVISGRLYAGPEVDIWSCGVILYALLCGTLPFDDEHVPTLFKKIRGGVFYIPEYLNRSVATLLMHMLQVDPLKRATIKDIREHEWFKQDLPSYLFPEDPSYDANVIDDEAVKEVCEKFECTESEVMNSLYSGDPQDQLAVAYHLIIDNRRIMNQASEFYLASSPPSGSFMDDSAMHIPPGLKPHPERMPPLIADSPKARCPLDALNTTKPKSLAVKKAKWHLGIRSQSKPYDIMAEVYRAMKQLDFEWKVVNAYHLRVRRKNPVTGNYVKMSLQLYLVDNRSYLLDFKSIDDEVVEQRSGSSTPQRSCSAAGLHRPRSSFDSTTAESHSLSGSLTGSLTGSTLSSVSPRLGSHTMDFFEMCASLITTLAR

CDKL1 = CDKL1 (Homo sapiens, UniProt Q00532); conditions: read-out: %Inh CDKL1
CDKL1, sequence (Q00532 whole entry): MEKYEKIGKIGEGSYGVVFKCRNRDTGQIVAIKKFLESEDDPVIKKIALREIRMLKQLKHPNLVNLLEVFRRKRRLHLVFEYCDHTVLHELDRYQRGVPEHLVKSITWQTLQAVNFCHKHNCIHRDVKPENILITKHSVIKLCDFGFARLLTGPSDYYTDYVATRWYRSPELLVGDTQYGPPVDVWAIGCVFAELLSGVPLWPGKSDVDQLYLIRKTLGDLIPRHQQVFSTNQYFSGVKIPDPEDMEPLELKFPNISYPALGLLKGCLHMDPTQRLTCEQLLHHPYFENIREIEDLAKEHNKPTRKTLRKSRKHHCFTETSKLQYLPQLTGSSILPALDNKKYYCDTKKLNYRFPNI

LRRK2 = LRRK2 (Homo sapiens, UniProt Q5S007); conditions: read-out: %Inh LRRK2
MAP3K15 = biological target: T2, MAP3K15 (Homo sapiens, UniProt Q6ZN16); conditions: read-out: %Inh MAP3K15
T2 sequence (Q6ZN16 1-1313): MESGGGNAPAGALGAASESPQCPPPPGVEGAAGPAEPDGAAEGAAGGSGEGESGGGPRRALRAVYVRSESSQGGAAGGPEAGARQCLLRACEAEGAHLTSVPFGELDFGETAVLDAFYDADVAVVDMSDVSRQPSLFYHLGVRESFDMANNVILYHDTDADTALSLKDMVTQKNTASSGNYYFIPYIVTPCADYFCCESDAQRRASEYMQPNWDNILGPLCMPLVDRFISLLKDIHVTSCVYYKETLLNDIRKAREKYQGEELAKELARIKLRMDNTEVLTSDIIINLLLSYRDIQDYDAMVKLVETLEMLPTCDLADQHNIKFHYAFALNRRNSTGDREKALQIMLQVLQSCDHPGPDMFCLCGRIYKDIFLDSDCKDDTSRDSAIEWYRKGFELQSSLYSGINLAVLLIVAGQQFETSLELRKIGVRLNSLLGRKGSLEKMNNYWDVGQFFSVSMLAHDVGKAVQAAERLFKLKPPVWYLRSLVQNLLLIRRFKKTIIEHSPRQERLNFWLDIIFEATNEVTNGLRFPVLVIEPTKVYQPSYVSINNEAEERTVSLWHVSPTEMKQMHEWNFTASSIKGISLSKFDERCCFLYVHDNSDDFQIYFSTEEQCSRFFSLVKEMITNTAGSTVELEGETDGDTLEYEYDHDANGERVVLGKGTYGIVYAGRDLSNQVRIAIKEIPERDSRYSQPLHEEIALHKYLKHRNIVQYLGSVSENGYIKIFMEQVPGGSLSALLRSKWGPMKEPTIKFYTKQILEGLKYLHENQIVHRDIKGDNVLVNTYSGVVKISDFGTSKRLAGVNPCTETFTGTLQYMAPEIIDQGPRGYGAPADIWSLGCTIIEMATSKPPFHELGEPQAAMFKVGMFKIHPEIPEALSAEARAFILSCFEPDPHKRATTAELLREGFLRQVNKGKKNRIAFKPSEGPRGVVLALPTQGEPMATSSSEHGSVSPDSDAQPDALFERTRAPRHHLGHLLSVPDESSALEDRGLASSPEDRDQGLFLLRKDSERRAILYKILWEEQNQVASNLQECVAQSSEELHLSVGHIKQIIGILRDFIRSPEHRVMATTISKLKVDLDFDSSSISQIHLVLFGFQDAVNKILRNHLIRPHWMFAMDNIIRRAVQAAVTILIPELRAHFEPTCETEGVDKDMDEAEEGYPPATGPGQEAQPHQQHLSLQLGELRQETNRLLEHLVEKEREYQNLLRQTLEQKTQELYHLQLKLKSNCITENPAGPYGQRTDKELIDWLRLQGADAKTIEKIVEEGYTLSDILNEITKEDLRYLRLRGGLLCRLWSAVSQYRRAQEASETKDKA

ERK5 = ERK5 (Homo sapiens, UniProt Q13164); conditions: read-out: %Inh ERK5
ERK5, sequence (Q13164 whole entry): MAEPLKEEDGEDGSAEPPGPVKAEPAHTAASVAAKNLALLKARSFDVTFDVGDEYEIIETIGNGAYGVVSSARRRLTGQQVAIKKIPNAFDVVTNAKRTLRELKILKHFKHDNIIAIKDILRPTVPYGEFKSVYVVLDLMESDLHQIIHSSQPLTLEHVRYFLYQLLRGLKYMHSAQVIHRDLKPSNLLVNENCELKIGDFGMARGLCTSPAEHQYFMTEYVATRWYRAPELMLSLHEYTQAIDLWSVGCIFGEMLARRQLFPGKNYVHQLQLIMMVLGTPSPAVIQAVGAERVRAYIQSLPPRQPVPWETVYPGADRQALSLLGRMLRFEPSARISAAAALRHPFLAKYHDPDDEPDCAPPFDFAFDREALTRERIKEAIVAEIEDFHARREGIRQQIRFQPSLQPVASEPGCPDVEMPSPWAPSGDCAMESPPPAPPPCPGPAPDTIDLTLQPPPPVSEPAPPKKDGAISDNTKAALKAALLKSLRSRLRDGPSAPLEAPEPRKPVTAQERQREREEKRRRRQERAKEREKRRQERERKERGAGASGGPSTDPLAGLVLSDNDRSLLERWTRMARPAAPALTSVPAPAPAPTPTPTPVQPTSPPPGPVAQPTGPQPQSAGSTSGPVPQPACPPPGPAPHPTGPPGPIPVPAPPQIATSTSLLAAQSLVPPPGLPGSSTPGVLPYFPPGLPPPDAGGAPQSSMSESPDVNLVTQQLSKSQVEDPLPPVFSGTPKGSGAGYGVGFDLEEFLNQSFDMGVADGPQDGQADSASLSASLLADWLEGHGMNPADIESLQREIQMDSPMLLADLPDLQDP

CAMK2B = CAMK2B (Homo sapiens, UniProt Q13554); conditions: read-out: %Inh CAMK2B
CAMK2B, sequence (Q13554 whole entry): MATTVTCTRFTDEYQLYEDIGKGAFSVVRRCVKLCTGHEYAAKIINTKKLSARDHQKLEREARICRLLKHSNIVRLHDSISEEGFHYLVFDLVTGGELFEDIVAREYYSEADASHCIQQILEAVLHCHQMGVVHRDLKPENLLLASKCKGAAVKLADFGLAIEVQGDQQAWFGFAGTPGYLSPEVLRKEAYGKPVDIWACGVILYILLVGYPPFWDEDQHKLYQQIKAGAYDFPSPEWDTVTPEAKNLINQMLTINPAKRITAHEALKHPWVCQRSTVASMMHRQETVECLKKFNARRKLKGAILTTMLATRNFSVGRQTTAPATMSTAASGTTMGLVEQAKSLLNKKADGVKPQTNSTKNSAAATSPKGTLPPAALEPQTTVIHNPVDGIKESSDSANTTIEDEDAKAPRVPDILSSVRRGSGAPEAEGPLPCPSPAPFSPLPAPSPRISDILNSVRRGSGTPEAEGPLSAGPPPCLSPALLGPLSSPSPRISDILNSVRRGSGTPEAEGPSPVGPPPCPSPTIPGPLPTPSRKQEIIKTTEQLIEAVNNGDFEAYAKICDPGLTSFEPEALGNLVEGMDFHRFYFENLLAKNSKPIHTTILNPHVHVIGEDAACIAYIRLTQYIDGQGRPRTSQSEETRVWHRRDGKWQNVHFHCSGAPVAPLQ

Row | Compound | inhibition at 1 µM (EPHB6) [%] | inhibition at 1 µM (ABL1-phosphorylated) [%] | inhibition at 1 µM (AMPK-alpha2) [%] | inhibition at 1 µM (CDKL1) [%] | inhibition at 1 µM (LRRK2) [%] | inhibition at 1 µM (MAP3K15) [%] | inhibition at 1 µM (ERK5) [%] | inhibition at 1 µM (CAMK2B) [%]
1 | Cn1cc(-c2cnc(N)c3c(-c4ccc5c(c4)CCN5C(=O)Cc4ccccc4)csc23)cn1 [UNC10225012A] | 98.3 | 89 | 0 | 9 | 3 | 35 | 15 | 12
2 | CS(=O)(=O)Cc1ccc(Nc2nccc(-c3c(-c4cccc(NC(=O)C5CCCCC5)c4)nn4ncccc34)n2)cc1 [UNC10225159A] | 42 | 15 | 2 | 0 | 20 | 38 | 0 | 8
3 | Cc1ccc(NC(=O)Nc2cccc(C(F)(F)F)c2)cc1 [UNC10225187A] | 21 | 23 | 0 | 14 | 0 | 0 | 5 | 25
4 | COc1cccc(OC)c1C(=O)Nc1cccc(-c2nn3ccccc3c2-c2ccnc(Nc3cccc(F)c3)n2)c1 [UNC10225310A] | 42 | 18 | 4 | 15 | 0 | 0 | 2 | 6
5 | O=c1cc(N2CCOCC2)nc2n(Cc3cccc(Cl)c3Cl)c(C3CC3)nn12 [UNC10225469A] | 33 | 20 | 0 | 20 | 0 | 0 | 0 | 10

Source: PMC5540273, “Progress towards a public chemogenomic set for protein kinases and a call for contributions” (PLoS ONE, 2017)
